Legend:
[1] = test system: Puccinia recondita f. Sp. Tritici; assay: Fungicidal activity, wheat leaf disc preventative (brown rust); assay type: in vivo; conditions: foliar, 200 ppm in the applied formulation, wheat leaf segments cv. Kanzler, compared to untreated control, 7 to 9 days after application, read-out: disease control
How it was run: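 Preventative leaf-segment test: spray application of diluted formulated compound on wheat cv. Kanzler, spore inoculation after 1 day. Percent control relative to untreated segments rated 7 to 9 days post-application, with incubation at 19° C, 75% relative humidity, 12 h photoperiod.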

[2] = test system: Glomerella lacenarium (Colletotrichum lacenarium); assay: Fungicidal activity, liquid culture, cucumber preventative (anthracnose); assay type: cell-based; conditions: 20 ppm in the applied formulation, liquid culture in PDB, inhibition of growth measured photometrically 3 to 4 days after application, compared to untreated control, read-out: disease control
How it was run: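 Test compound in DMSO is placed in a microtiter plate, then potato dextrose broth containing conidia from cryogenic storage is added. Incubation runs at 24° C., and growth inhibition is read photometrically after 3 to 4 days.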

Phakopsora pachyrhizi = assay: Fungicidal activity, soybean leaf disc preventative (Asian soybean rust); assay type: in vivo; conditions: foliar, 200 ppm in the applied formulation, soybean leaf disks, compared to untreated control, 12 to 14 days after application, read-out: disease control
Experimental: Leaf disks or leaf segments of various plant species are cut from plants grown in a greenhouse. The cut leaf disks or segments are placed in multiwell plates (24-well format) onto water agar. The leaf disks are sprayed with a test solution before (preventative) or after (curative) inoculation. Compounds to be tested are prepared as DMSO solutions (max. 10 mg/ml) which are diluted to the appropriate concentration with 0.025% Tween20 just before spraying. The inoculated leaf disks or segments are incubated under defined conditions (temperature, relative humidity, light, etc.) according to the respective test system. A single evaluation of disease level is carried out 3 to 14 days after inoculation, depending on the pathosystem. Percent disease control relative to the untreated check leaf disks or segments is then calculated.
Soybean leaf disks are placed on water agar in multiwell plates (24-well format) and sprayed with the formulated test compound diluted in water. One day after application leaf discs are inoculated by spraying a spore suspension on the lower leaf surface. After an incubation period in a climate cabinet of 24-36 hours in darkness at 20° C. and 75% rh leaf disc are kept at 20° C. with 12 h light/day and 75% rh. The activity of a compound is assessed as percent disease control compared to untreated when an appropriate level of disease damage appears in untreated check leaf disks (12 to 14 days after application).
The following compounds at 200 ppm in the applied formulation give at least 80% disease control in this test when compared to untreated control leaf disks under the same conditions, which show extensive disease development.

[3] = test system: Puccinia recondita f. Sp. Tritici; assay: Fungicidal activity, wheat leaf disc curative (brown rust); assay type: in vivo; conditions: foliar, 200 ppm in the applied formulation, wheat leaf segments cv. Kanzler, curative (applied 1 day after inoculation), compared to untreated control, 6 to 8 days after application, read-out: disease control
How it was run: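 Segments of wheat (cultivar Kanzler) sit on agar and are spore-inoculated first; after one day in darkness at 19° C and 75% RH the diluted formulated compound is sprayed on. A 12 h photoperiod follows at the same temperature and humidity before disease is scored against untreated controls.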

O=C(NCc1ccc(-c2noc(C(F)(F)F)n2)s1)C1CC1 [Compound 3.1, N-[[5-[5-(trifluoromethyl)-1,2,4-oxadiazol-3-yl]-2-thienyl]methyl]cyclopropanecarboxamide]
≥ 80%: pest or weed control at 200 ppm [1] | inhibition of growth at 20 ppm [2] | pest or weed control at 200 ppm (Phakopsora pachyrhizi) | pest or weed control at 200 ppm [3]

CN(Cc1ccc(-c2noc(C(F)(F)F)n2)s1)C(=O)CC(F)(F)F [Compound 4.40, 3,3,3-trifluoro-N-methyl-N-[[5-[5-(trifluoromethyl)-1,2,4-oxadiazol-3-yl]-2-thienyl]methyl]propanamide]
≥ 80%: pest or weed control at 200 ppm [1] | inhibition of growth at 20 ppm [2] | pest or weed control at 200 ppm (Phakopsora pachyrhizi) | pest or weed control at 200 ppm [3]

O=C(NCc1ccc(-c2noc(C(F)(F)F)n2)s1)c1ccccc1Cl [Compound 3.9, 2-chloro-N-[[5-[5-(trifluoromethyl)-1,2,4-oxadiazol-3-yl]-2-thienyl]methyl]benzamide]
≥ 80%: pest or weed control at 200 ppm [1] | inhibition of growth at 20 ppm [2] | pest or weed control at 200 ppm (Phakopsora pachyrhizi) | pest or weed control at 200 ppm [3]

CCN(Cc1ccc(-c2noc(C(F)(F)F)n2)s1)C(=O)NC(C)C [Compound 4.9, 1-ethyl-3-isopropyl-1-[[5-[5-(trifluoromethyl)-1,2,4-oxadiazol-3-yl]-2-thienyl]methyl]urea]
≥ 80%: pest or weed control at 200 ppm [1] | inhibition of growth at 20 ppm [2] | pest or weed control at 200 ppm (Phakopsora pachyrhizi) | pest or weed control at 200 ppm [3]

CCNC(=O)N(Cc1ccc(-c2noc(C(F)(F)F)n2)s1)C(C)C [Compound 4.83, 3-ethyl-1-isopropyl-1-[[5-[5-(trifluoromethyl)-1,2,4-oxadiazol-3-yl]-2-thienyl]methyl]urea]
≥ 80%: pest or weed control at 200 ppm [1] | inhibition of growth at 20 ppm [2] | pest or weed control at 200 ppm (Phakopsora pachyrhizi) | pest or weed control at 200 ppm [3]

CC(=O)NCC(=O)N(C)Cc1ccc(-c2noc(C(F)(F)F)n2)s1 [Compound 4.33, 2-acetamido-N-methyl-N-[[5-[5-(trifluoromethyl)-1,2,4-oxadiazol-3-yl]-2-thienyl]methyl]acetamide]
≥ 80%: pest or weed control at 200 ppm [1] | inhibition of growth at 20 ppm [2] | pest or weed control at 200 ppm (Phakopsora pachyrhizi) | pest or weed control at 200 ppm [3]

CN(Cc1ccc(-c2noc(C(F)(F)F)n2)s1)C(=O)NC1CC1 [Compound 5.6, 3-cyclopropyl-1-methyl-1-[[5-[5-(trifluoromethyl)-1,2,4-oxadiazol-3-yl]-2-thienyl]methyl]urea]
≥ 80%: pest or weed control at 200 ppm [1] | inhibition of growth at 20 ppm [2] | pest or weed control at 200 ppm (Phakopsora pachyrhizi) | pest or weed control at 200 ppm [3]

CC(C)NC(=O)N(C)Cc1ccc(-c2noc(C(F)(F)F)n2)s1 [Compound 4.17, 3-isopropyl-1-methyl-1-[[5-[5-(trifluoromethyl)-1,2,4-oxadiazol-3-yl]-2-thienyl]methyl]urea]
≥ 80%: pest or weed control at 200 ppm [1] | inhibition of growth at 20 ppm [2] | pest or weed control at 200 ppm (Phakopsora pachyrhizi) | pest or weed control at 200 ppm [3]

C#CCNC(=O)N(C)Cc1ccc(-c2noc(C(F)(F)F)n2)s1 [Compound 4.81, 1-methyl-3-prop-2-ynyl-1-[[5-[5-(trifluoromethyl)-1,2,4-oxadiazol-3-yl]-2-thienyl]methyl]urea]
≥ 80%: pest or weed control at 200 ppm [1] | inhibition of growth at 20 ppm [2] | pest or weed control at 200 ppm (Phakopsora pachyrhizi) | pest or weed control at 200 ppm [3]

COCC(=O)N(Cc1ccc(-c2noc(C(F)(F)F)n2)s1)C1CC1 [Compound 4.52, N-cyclopropyl-2-methoxy-N-[[5-[5-(trifluoromethyl)-1,2,4-oxadiazol-3-yl]-2-thienyl]methyl]acetamide]
≥ 80%: pest or weed control at 200 ppm [1] | inhibition of growth at 20 ppm [2] | pest or weed control at 200 ppm (Phakopsora pachyrhizi) | pest or weed control at 200 ppm [3]

COCCC(=O)N(Cc1ccc(-c2noc(C(F)(F)F)n2)s1)OC [Compound 1.11, N,3-dimethoxy-N-[[5-[5-(trifluoromethyl)-1,2,4-oxadiazol-3-yl]-2-thienyl]methyl]propanamide]
≥ 80%: pest or weed control at 200 ppm [1] | inhibition of growth at 20 ppm [2] | pest or weed control at 200 ppm (Phakopsora pachyrhizi) | pest or weed control at 200 ppm [3]

CON(Cc1ccc(-c2noc(C(F)(F)F)n2)s1)C(=O)C1CCCO1 (stereo not shown) [Compound 1.17, N-methoxy-N-[[5-[5-(trifluoromethyl)-1,2,4-oxadiazol-3-yl]-2-thienyl]methyl]tetrahydrofuran-2-carboxamide]
≥ 80%: pest or weed control at 200 ppm [1] | inhibition of growth at 20 ppm [2] | pest or weed control at 200 ppm (Phakopsora pachyrhizi) | pest or weed control at 200 ppm [3]

COCCNC(=O)N(Cc1ccc(-c2noc(C(F)(F)F)n2)s1)C1CC1 [Compound 4.89, 1-cyclopropyl-3-(2-methoxyethyl)-1-[[5-[5-(trifluoromethyl)-1,2,4-oxadiazol-3-yl]-2-thienyl]methyl]urea]
≥ 80%: pest or weed control at 200 ppm [1] | inhibition of growth at 20 ppm [2] | pest or weed control at 200 ppm (Phakopsora pachyrhizi) | pest or weed control at 200 ppm [3]

CON(Cc1ccc(-c2noc(C(F)(F)F)n2)s1)C(=O)CC1CC1 [Compound 1.22, 2-cyclopropyl-N-methoxy-N-[[5-[5-(trifluoromethyl)-1,2,4-oxadiazol-3-yl]-2-thienyl]methyl]acetamide]
≥ 80%: pest or weed control at 200 ppm [1] | inhibition of growth at 20 ppm [2] | pest or weed control at 200 ppm (Phakopsora pachyrhizi) | pest or weed control at 200 ppm [3]

CCN(Cc1ccc(-c2noc(C(F)(F)F)n2)s1)C(=O)CCOC [Compound 4.25, N-ethyl-3-methoxy-N-[[5-[5-(trifluoromethyl)-1,2,4-oxadiazol-3-yl]-2-thienyl]methyl]propanamide]
≥ 80%: pest or weed control at 200 ppm [1] | inhibition of growth at 20 ppm [2] | pest or weed control at 200 ppm (Phakopsora pachyrhizi) | pest or weed control at 200 ppm [3]

CON(Cc1ccc(-c2noc(C(F)(F)F)n2)s1)C(=O)C1CCOC1 (stereo not shown) [Compound 1.10, N-methoxy-N-[[5-[5-(trifluoromethyl)-1,2,4-oxadiazol-3-yl]-2-thienyl]methyl]tetrahydrofuran-3-carboxamide]
≥ 80%: pest or weed control at 200 ppm [1] | inhibition of growth at 20 ppm [2] | pest or weed control at 200 ppm (Phakopsora pachyrhizi) | pest or weed control at 200 ppm [3]

CCN(Cc1ccc(-c2noc(C(F)(F)F)n2)s1)C(=O)C1(C)COC1 [Compound 5.14, N-ethyl-3-methyl-N-[[5-(5-(trifluoromethyl)-1,2,4-oxadiazol-3-yl]-2-thienyl]methyl]oxetane-3-carboxamide]
≥ 80%: pest or weed control at 200 ppm [1] | inhibition of growth at 20 ppm [2] | pest or weed control at 200 ppm (Phakopsora pachyrhizi) | pest or weed control at 200 ppm [3]

COCCC(=O)N(C)Cc1ccc(-c2noc(C(F)(F)F)n2)s1 [Compound 4.35, 3-methoxy-N-methyl-N-[[5-[5-(trifluoromethyl)-1,2,4-oxadiazol-3-yl]-2-thienyl]methyl]propanamide]
≥ 80%: pest or weed control at 200 ppm [1] | inhibition of growth at 20 ppm [2] | pest or weed control at 200 ppm (Phakopsora pachyrhizi) | pest or weed control at 200 ppm [3]

CNC(=O)N(Cc1ccc(-c2noc(C(F)(F)F)n2)s1)OCC(F)F [Compound 4.19, 1-(2,2-difluoroethoxy)-3-methyl-1-[[5-[5-(trifluoromethyl)-1,2,4-oxadiazol-3-yl]-2-thienyl]methyl]urea]
≥ 80%: pest or weed control at 200 ppm [1] | inhibition of growth at 20 ppm [2] | pest or weed control at 200 ppm (Phakopsora pachyrhizi) | pest or weed control at 200 ppm [3]

— patent publication US20200187502A1, “MICROBIOCIDAL OXADIAZOLE DERIVATIVES” (SYNGENTA PARTICIPATIONS AG, priority 2017, published 2020)
